# According to patent US20070003626A1, “Sterile in-situ microcarrier forming gelled polymeric dispersions and processes to manufacture the same” (priority 2004, published 2007):
# Assay: Effect of gamma irradiation on paclitaxel stability in various compositions (paclitaxel assay before and after irradiation)
# Type: physicochemical
# From the text: Paclitaxel either as a powder or in solution in different solvents such as DMA, PEG 400, DMA:PEG 400 (25:75% w/w) and in a polymer solution in DMA:PEG 400 (25:75% w/w) was subjected to gamma irradiation sterilization at a dose of 25 KGy and analyzed for paclitaxel content before and after irradiation.
compound,measurement,setting,value
CC(=O)O[C@H]1C(=O)[C@@]2(C)[C@H]([C@H](OC(=O)c3ccccc3)[C@]3(O)C[C@H](OC(=O)[C@H](O)[C@@H](NC(=O)c4ccccc4)c4ccccc4)C(C)=C1C3(C)C)[C@]1(OC(C)=O)CO[C@@H]1C[C@@H]2O [Paclitaxel],"Assay WRT initial, % (percentage remaining after treatment)",after gamma irradiation at 25 KGy,94.74%
same,"Assay, % Post-irradiation",paclitaxel content after gamma irradiation at 25 KGy,94.74 ± 2.36%
same,"Assay, % Initial",paclitaxel content before gamma irradiation,100%
